Non-standard residues stand in square brackets, D forms with d. Residues, ends and D or L forms follow the SMILES beside them. *: point of attachment. NMeF = CN[C@@H](Cc1ccccc1)C(=O)O; Cha = N[C@@H](CC1CCCCC1)C(=O)O; NMeL = CN[C@@H](CC(C)C)C(=O)O; dNMeL = CN[C@H](CC(C)C)C(=O)O; dNMeV = CN[C@@H](C(=O)O)C(C)C; Cbz = O=C(OCc1ccccc1)*; Sar = CNCC(=O)O
Experiments:
HCT-116 [1] = test: Growth inhibition in HCT116 cells assessed as inhibition of [3H]thymidine incorporation at 1 uM relative to control; format: functional; conditions: Homo sapiens, read-out: TGI
HCT-15 [2] = test: Growth inhibition in HCT15 cells assessed as inhibition of [3H]thymidine incorporation at 1 uM relative to control; format: functional; conditions: Homo sapiens, read-out: TGI
[3] = Growth inhibition in WS1 cells assessed as inhibition of [3H]thymidine incorporation; format: functional, cell-based; conditions: Homo sapiens
HCT-15 [4] = test: Growth inhibition in HCT15 cells assessed as inhibition of [3H]thymidine incorporation; format: functional, cell-based; conditions: Homo sapiens
HCT-116 [5] = test: Growth inhibition in HCT116 cells assessed as inhibition of [3H]thymidine incorporation; format: functional, cell-based; conditions: Homo sapiens

Compound	inhibition of growth at 1 µM (HCT-116 [1]) [%]	inhibition of growth at 1 µM (HCT-15 [2]) [%]	IC50 [3] [µM]	IC50 (HCT-15 [4]) [µM]	IC50 (HCT-116 [5]) [µM]
CC(C)C[C@@H]1NC(=O)[C@H](Cc2ccccc2)NC(=O)[C@H](CC(C)C)NC(=O)[C@H](C(C)C)N(C)C(=O)[C@H](CC(C)C)NC1=O	6	23	–	–	–
CC(C)C[C@@H]1NC(=O)[C@H](Cc2ccccc2)NC(=O)[C@@H](Cc2ccccc2)N(C)C(=O)[C@H](C(C)C)NC(=O)[C@H](CC(C)C)NC1=O	59	57	200	0.65	–
CC(C)C[C@@H]1NC(=O)[C@H](Cc2ccccc2)NC(=O)[C@@H](Cc2ccccc2)NC(=O)[C@H](C(C)C)NC(=O)[C@H](CC(C)C)NC1=O	35	14	–	300	200
CC(C)C[C@@H]1NC(=O)[C@@H](Cc2ccccc2)NC(=O)[C@@H](CC(C)C)NC(=O)[C@@H](C(C)C)N(C)C(=O)[C@H](CC(C)C)NC1=O	44	35	–	–	–
CC(C)C[C@@H]1NC(=O)[C@@H](CC(C)C)N(C)C(=O)[C@H](Cc2ccccc2)NC(=O)[C@H](C(C)C)NC(=O)[C@H](C(C)C)NC1=O	42	48	200	1.2	2
CC(C)C[C@@H]1NC(=O)[C@H](C(C)C)NC(=O)[C@H](CC(C)C)N(C)C(=O)[C@H](CC(C)C)N(C)C(=O)[C@H](Cc2ccccc2)NC1=O	30	57	–	–	–
CC(C)C[C@@H]1NC(=O)[C@@H](C(C)C)N(C)C(=O)[C@H](CC(C)C)NC(=O)[C@@H](CC(C)C)NC(=O)[C@H](Cc2ccccc2)NC1=O	0	0	–	–	–
CC(C)C[C@@H]1NC(=O)[C@H](Cc2ccccc2)NC(=O)[C@H](CC(C)C)NC(=O)[C@@H](C(C)C)N(C)C(=O)[C@H](CC(C)C)NC1=O	19	21	–	–	–
CC(C)C[C@@H]1NC(=O)[C@H](C(C)C)NC(=O)[C@H](CC(C)C)N(C)C(=O)[C@@H](CC(C)C)N(C)C(=O)[C@H](Cc2ccccc2)NC1=O	23	30	–	–	–
CC(C)C[C@@H]1NC(=O)[C@H](Cc2ccccc2)NC(=O)[C@H](CC(C)C)NC(=O)[C@@H](C(C)C)NC(=O)[C@H](CCCCNC(=O)OCc2ccccc2)NC1=O (cyclo(FLK(Cbz)[dV]L))	16	3	–	–	–
CC(C)C[C@@H]1NC(=O)[C@H](Cc2ccccc2)NC(=O)[C@H](CC(C)C)NC(=O)[C@@H](C(C)C)NC(=O)[C@H](CCCCN)NC1=O (cyclo(FLK[dV]L))	11	18	–	–	–
CC(C)C[C@@H]1NC(=O)[C@H](Cc2ccccc2)NC(=O)[C@H](CC(C)C)NC(=O)[C@H](C(C)C)NC(=O)[C@H](CC(C)C)NC1=O (cyclo(FLLVL))	28	10	300	21	–
CC(C)C[C@@H]1NC(=O)[C@H](Cc2ccccc2)NC(=O)[C@@H](CC(C)C)NC(=O)[C@H](C(C)C)NC(=O)[C@H](CC(C)C)NC1=O (cyclo(FLLV[dL]))	18	10	–	–	–
CC(C)C[C@@H]1NC(=O)[C@H](Cc2ccccc2)NC(=O)[C@@H](CC(C)C)N(C)C(=O)[C@H](C(C)C)NC(=O)[C@H](CC(C)C)NC1=O (cyclo(FLLV[dNMeL]))	25	33	–	–	–
CC(C)C[C@@H]1NC(=O)[C@H](Cc2ccccc2)NC(=O)[C@H](CC(C)C)NC(=O)[C@@H](Cc2ccccc2)NC(=O)[C@H](CC(C)C)NC1=O (cyclo(FLL[dF]L))	11	11	–	–	–
CC(C)C[C@@H]1NC(=O)[C@H](Cc2ccccc2)NC(=O)[C@H](CC(C)C)NC(=O)[C@@H](CO)NC(=O)[C@H](CC(C)C)NC1=O (cyclo(FLL[dS]L))	0	11	–	–	–

Compound	inhibition of growth at 1 µM (HCT-116 [1]) [%]	inhibition of growth at 1 µM (HCT-15 [2]) [%]	IC50 [3] [µM]	IC50 (HCT-15 [4]) [µM]	IC50 (HCT-116 [5]) [µM]
CC(C)C[C@@H]1NC(=O)[C@H](Cc2ccccc2)NC(=O)[C@H](CC(C)C)NC(=O)[C@@H](C(C)C)NC(=O)[C@H](CC(C)C)NC1=O (cyclo(FLL[dV]L))	48	48	20	–	–
CC(C)C[C@@H]1NC(=O)[C@H](Cc2ccccc2)NC(=O)[C@@H](CC(C)C)NC(=O)[C@@H](C(C)C)NC(=O)[C@H](CC(C)C)NC1=O (cyclo(FLL[dV][dL]))	41	21	–	–	–
CC(C)C[C@@H]1NC(=O)[C@H](Cc2ccccc2)NC(=O)[C@H](CC(C)C)NC(=O)[C@H](C(C)C)NC(=O)[C@@H](CC(C)C)NC1=O (cyclo(FL[dL]VL))	0	15	–	–	–
CC(C)C[C@@H]1NC(=O)[C@H](C(C)C)NC(=O)[C@H](CC(C)C)NC(=O)[C@H](CC(C)C)N(C)C(=O)[C@H](Cc2ccccc2)NC1=O (cyclo(F[NMeL]LVL))	59	35	–	–	–
CC(C)C[C@@H]1NC(=O)[C@@H](C(C)C)NC(=O)[C@H](CC(C)C)NC(=O)[C@H](CC(C)C)N(C)C(=O)[C@H](Cc2ccccc2)NC1=O (cyclo(F[NMeL]L[dV]L))	38	19	–	–	–
CC(C)C[C@@H]1NC(=O)CN(C)C(=O)[C@H](Cc2ccccc2)NC(=O)[C@H](C(C)C)NC(=O)[C@@H](C(C)C)NC1=O (cyclo(F[Sar]L[dV]V))	20	18	–	–	–
CC(C)C[C@@H]1NC(=O)[C@@H](CC(C)C)NC(=O)[C@H](Cc2ccccc2)NC(=O)[C@H](CC(C)C)NC(=O)[C@@H](C(C)C)NC1=O (cyclo(F[dL]L[dV]L))	16	20	–	–	–
CC(C)C[C@@H]1NC(=O)[C@H](C(C)C)NC(=O)[C@@H](CC(C)C)NC(=O)[C@@H](CC(C)C)NC(=O)[C@H](Cc2ccccc2)NC1=O (cyclo(F[dL][dL]VL))	28	40	–	–	–
CC(C)C[C@@H]1NC(=O)[C@H](CC(C)C)NC(=O)[C@@H](Cc2ccccc2)NC(=O)[C@H](CC(C)C)NC(=O)[C@H](C(C)C)NC1=O (cyclo(LLVL[dF]))	30	26	–	–	–
CC(C)C[C@@H]1NC(=O)[C@H](CC(C)C)NC(=O)[C@@H](Cc2c[nH]c3ccccc23)NC(=O)[C@H](CC(C)C)NC(=O)[C@H](C(C)C)NC1=O (cyclo(LLVL[dW]))	2	9	–	–	–
CC(C)C[C@@H]1NC(=O)[C@H](CC(C)C)NC(=O)[C@@H](Cc2ccc(O)cc2)NC(=O)[C@H](CC(C)C)NC(=O)[C@H](C(C)C)NC1=O (cyclo(LLVL[dY]))	45	60	200	–	–
CC(C)C[C@@H]1NC(=O)[C@H](Cc2ccc(O)cc2)NC(=O)[C@H](CC(C)C)N(C)C(=O)[C@H](C(C)C)NC(=O)[C@H](CC(C)C)NC1=O (cyclo(LLV[NMeL]Y))	20	3	–	–	–
CC(C)C[C@@H]1NC(=O)[C@H](Cc2ccccc2)NC(=O)[C@H](CC(C)C)NC(=O)[C@@H](C(C)C)N(C)C(=O)[C@H](CC2CCCCC2)NC1=O (cyclo([Cha][dNMeV]LFL))	48	60	16	–	2
CC(C)C[C@@H]1NC(=O)[C@H](CC(C)C)NC(=O)[C@H](Cc2ccccc2)N(C)C(=O)[C@H](CC(C)C)NC(=O)[C@H](C(C)C)NC1=O (cyclo([NMeF]LLVL))	2	18	–	–	–
CC(C)C[C@@H]1NC(=O)[C@H](C(C)C)NC(=O)[C@H](CC(C)C)NC(=O)[C@@H](CC(C)C)N(C)C(=O)[C@H](Cc2ccccc2)NC1=O (cyclo([dNMeL]LVLF))	45	10	–	–	–
O=c1[nH]cc(F)c(=O)[nH]1 [FLUOROURACIL]	–	–	300	300	300

— ChEMBL document CHEMBL1147145, “Scaffold targeting drug-resistant colon cancers” (J Med Chem, 2007)
